The record followed here is US20200157086A1, “BENZAMIDE COMPOUNDS AND THEIR USE AS HERBICIDES” (BASF SE, priority 2017, published 2020).

What all share (assay): post-emergence greenhouse test of herbicidal activity
Common to all, as to type: in vivo
Holding throughout (settings): application rate 250 g/ha, 100 = complete destruction, 0 = no damage

Test [1] has as its system ECHCG (Echinocloa crus-galli). From the text: (§1) The seeds of the test plants were sown separately for each species. For the post-emergence treatment, the test plants were first grown to a height of 3 to 15 cm, depending on the plant habit, and only then treated with the active ingredients which had been suspended or emulsified in water. For this purpose, the test plants were either sown directly and grown in the same containers, or they were first grown separately as seedlings and transplanted into the test containers a few days prior to treatment. Depending on the species, the plants were kept at 10-25° C. or 20-25° C., respectively. The test period extended over 2 to 4 weeks. During this time, the plants were tended, and their response to the individual treatments was evaluated. Evaluation was carried out using a scale from 0 to 100. 100 means no emergence of the plants, or complete destruction of at least the aerial moieties, and 0 means no damage, or normal course of growth. A good herbicidal activity is given at values of at least 70 and a very good herbicidal activity is given at values of at least 85. At an application rate of 250 g/ha the following compounds were tested in post-emergence tests against: […]

Test [2] deals with AMARE (Amaranthus retroflexus).
From the text: as §1

Test [3] has as its system CHEAL (Chenopodium album).
From the text: as §1

For test [4], the system named is ALOMY (Alopecurus myosuroiedes).
From the text: as §1

For the compound `CCN(C)C(=O)Nc1c(Cl)ccc(C(=O)Nc2nnnn2C)c1C` [compound 3, 4-chloro-3-[[ethyl(methyl)carbamoyl]amino]-2-methyl-N-(1-methyltetrazol-5-yl)benzamide], in test [1], the “herbicidal activity against ECHCG, scale from 0 to 100” value is 100. Besides, in test [2], the “herbicidal activity against AMARE, scale from 0 to 100” value stood at 100. Moreover, the “herbicidal activity against CHEAL, scale from 0 to 100” value in test [3] was determined as 100. In addition, the “herbicidal activity against ALOMY, scale from 0 to 100” value in test [4] worked out at 98.
